# Experimental data as given in the supplement of paper PMC5579334.
# ± gives the standard deviation of the averaged measurements.
# What was measured:
# S1507-2 [1] = assay: drug sensitivity score (DSS, CellTox-Green cytotoxicity, 72 h) (DSS (dimensionless)); higher = more cytotoxic; extreme values may be limits of the assay
# Outline: (§1)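 For 72 h at 37 °C, MPNST cell lines and primary human Schwann cells were exposed in 384-well plates to five 10-fold compound dilutions. CellTox-Green, added before seeding at a final 1:1000 dilution, gave fluorescence from DNA released by disrupted cells. Signals were scaled to vehicle and positive-control wells, cultures failing plate quality control were left out, and four-parameter logistic fits were applied. Relative IC50 and drug sensitivity score were derived from the fits, with IC50 censored at the top concentration.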
# STS26T [2] = assay: as above
# Outline: as §1
# ST8814 [3] = assay: as above
# Outline: as §1
# [4] = system: HSC1 (primary human Schwann cells); assay: as above
# Outline: as §1
# HS-PSS [5] = assay: as above
# Outline: as §1
# [6] = system: HSC2 (primary human Schwann cells); assay: as above
# Outline: as §1
# S1507-2 [7] = assay: % inhibition of CellTiter-Glo viability at highest tested concentration (72 h), relative to DMSO and benzethonium chloride controls; higher = more inhibition
# Outline: (§2)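 MPNST cell lines and primary human Schwann cells were seeded at 750–1000 cells per well into 384-well plates preprinted with each compound at five concentrations in 10-fold steps, then incubated 72 h at 37 °C, 5% CO2. CellTiter-Glo ATP luminescence gave viability, scaled between vehicle and positive-control wells, with duplicates averaged where present. Curves were fitted with a four-parameter logistic model. Percent inhibition refers to the top concentration, while drug sensitivity score and relative IC50, censored at the top concentration, come from these fits.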
# HS-Sch-2 [8] = assay: as above
# Outline: as §2
# YST-1 [9] = assay: as above
# Outline: as §2
# STS26T [10] = assay: as above
# Outline: as §2
# ST8814 [11] = assay: as above
# Outline: as §2
# [12] = system: HSC1 (primary human Schwann cells); assay: as above
# Outline: as §2
# S462 [13] = assay: as above
# Outline: as §2
# HS-PSS [14] = assay: as above
# Outline: as §2
# [15] = system: HSC2 (primary human Schwann cells); assay: as above
# Outline: as §2
# S1507-2 [16] = assay: drug sensitivity score (DSS, CellTiter-Glo viability, 72 h) (DSS (dimensionless)); higher = more sensitive; extreme values may be limits of the assay
# Outline: as §2
# HS-Sch-2 [17] = assay: as above
# Outline: as §2
# YST-1 [18] = assay: as above
# Outline: as §2
# STS26T [19] = assay: as above
# Outline: as §2
# ST8814 [20] = assay: as above
# Outline: as §2
# [21] = system: HSC1 (primary human Schwann cells); assay: as above
# Outline: as §2
# S462 [22] = assay: as above
# Outline: as §2
# HS-PSS [23] = assay: as above
# Outline: as §2
# [24] = system: HSC2 (primary human Schwann cells); assay: as above
# Outline: as §2
SMILES,drug sensitivity score (S1507-2 [1]),drug sensitivity score (STS26T [2]),drug sensitivity score (ST8814 [3]),drug sensitivity score [4],drug sensitivity score (HS-PSS [5]),drug sensitivity score [6],% inhibition (S1507-2 [7]) [%],% inhibition (HS-Sch-2 [8]) [%],% inhibition (YST-1 [9]) [%],% inhibition (STS26T [10]) [%],% inhibition (ST8814 [11]) [%],% inhibition [12] [%],% inhibition (S462 [13]) [%],% inhibition (HS-PSS [14]) [%],% inhibition [15] [%],drug sensitivity score (S1507-2 [16]),drug sensitivity score (HS-Sch-2 [17]),drug sensitivity score (YST-1 [18]),drug sensitivity score (STS26T [19]),drug sensitivity score (ST8814 [20]),drug sensitivity score [21],drug sensitivity score (S462 [22]),drug sensitivity score (HS-PSS [23]),drug sensitivity score [24]
CO[C@H]1C[C@@H]2CC[C@@H](C)[C@@](O)(O2)C(=O)C(=O)N2CCCC[C@H]2C(=O)O[C@H]([C@H](C)C[C@@H]2CC[C@@H](O)[C@H](OC)C2)CC(=O)[C@H](C)/C=C(\C)[C@@H](O)[C@@H](OC)C(=O)[C@H](C)C[C@H](C)/C=C/C=C/C=C/1C [Sirolimus] (max concentration tested 100 nM),0.0997 ± 0.14,0,0,0,0,0,5.52 ± 9,29.1,45.1,27.9,14.7,24.6,1.96 ± 4.9,32.9,23.2,0.128 ± 0.18,3.47,6.14,1.7,0.411,0.673,0,4.11,1.62
C=CCN(/C=C1/C(=O)O[C@H](COC)[C@@]2(C)C1=C(O)C(=O)C1=C2[C@H](OC(C)=O)C[C@]2(C)C(=O)CC[C@@H]12)CC=C [Sonolisib] (max concentration tested 10000 nM),0,0,0,0,0,0,15.9 ± 0.9,-0.71,7.12,11.4,7.84,6.67,17.1 ± 5.5,3.89,13.1,0.798 ± 0.34,0,0,0.263,0.745,0,0.831 ± 1.2,0,0.415
CNC(=O)c1cc(Oc2ccc(NC(=O)Nc3ccc(Cl)c(C(F)(F)F)c3)cc2)ccn1 [Sorafenib] (max concentration tested 1000 nM),0,0,0,0,0,0,-6.35 ± 3.5,-11.4,11.4,-3.72,-4.54,-5.93,-1.24 ± 2.1,-0.19,-21.1,0,0,0,0,0,0,0,0,0
CN1CCN(c2nc(C3=C(c4c[nH]c5ccccc45)C(=O)NC3=O)c3ccccc3n2)CC1 [Sotrastaurin] (max concentration tested 10000 nM),0,0,0,0,0,0,6.26 ± 6.6,5.75,17.7,-3.71,7.08,-32.7,11.8 ± 2,3.47,-36.1,0.00765 ± 0.011,0,0.45,0,0.337,0,0.0588 ± 0.083,0,0
O=[N+]([O-])c1ccc2c(c1)S(=O)(=O)C=C2 [Stattic] (max concentration tested 50000 nM),5.93 ± 1.3,12,7.96,15.6,12.8,9.26,95.7 ± 1.3,100,101,95.6,94.6,98.5,96.03 ± 0.43,101,98.3,7.88 ± 2.4,18.6,17.4,13.7,14.9,16.8,11.3 ± 3.2,18.7,13.9
CC(C)n1cnc2c(NCCc3ccc(O)cc3)nc(-c3csc4ccccc34)nc21 [StemRegenin 1] (max concentration tested 10000 nM),0,0.0972,0,0,0,0,19 ± 17,92.9,-1.94,41.7,31.3,42,15.8 ± 7.6,46.5,37,0.495 ± 0.7,4.66,0,1.69,1.77,1.71,0.493 ± 0.7,2.39,2.51
CN(N=O)C(=O)N[C@@H]1[C@@H](O)[C@H](O)[C@@H](CO)O[C@@H]1O [Streptozocin] (max concentration tested 10000 nM),0.108 ± 0.15,0,0,0,0,0,-6.55 ± 6.7,15.2,9.13,-0.477,6.38,-2.68,-6.63 ± 1.8,7.67,-3.21,0,0.37,0.32,0,0,0,0,1.36,0
CCN(CC)CCNC(=O)c1c(C)[nH]c(/C=C2\C(=O)Nc3ccc(F)cc32)c1C [Sunitinib] (max concentration tested 1000 nM),17.2 ± 24,0,0,0,0,0,17.7 ± 11,6.65,-7.4,8.24,14.7,-2.06,16.1 ± 0.67,11.8,-10.9,0.923 ± 1.3,0,0,0,0.732,0,0.473 ± 0.41,0,0
Cn1c(=O)c(F)c(Nc2ccc(I)cc2F)c2c(=O)n(C[C@@H](O)CO)cnc21 [TAK-733] (max concentration tested 1000 nM),2.13 ± 3,0.198,5.1,0,0,0,64.6 ± 1.8,63,14.2,40.6,83.7,60.4,76.5 ± 2.8,48.9,56.7,7.362 ± 0.071,5.75,0.48,6.24,9.73,6.66,10.3 ± 0.6,4.36,6.21
CCS(=O)(=O)c1cccc(-c2cc(C(=O)NC3CCN(C)CC3)c(C)c3[nH]c4ncc(C)cc4c23)c1 [TAK-901] (max concentration tested 1000 nM),0,6.2,5.81,0.0275,0,11,23.5 ± 3.2,70.3,76.6,69.6,57.6,63.8,80.6 ± 2.5,57.5,65.6,1.99 ± 0.39,3.76,10.1,7.82,3.64,7.19,8.66 ± 0.25,5.46,8.24
Cc1cc(C(C)Nc2ccccc2)c2nc(N3CCOCC3)cc(=O)n2c1 (configuration not stated) [TGX-221] (max concentration tested 10000 nM),0,0.376,0,0,0,0,28.4 ± 7.1,12.3,26.6,41.7,21.4,16.5,7.98 ± 6.7,-2.49,6.57,3.32 ± 0.24,0.19,0.99,4.31,1.34,0.168,0.122 ± 0.17,0,0
Nc1nc(NC2CC2)cc(-c2cccc(Cl)c2Cl)n1 [TH588] (max concentration tested 25000 nM),5.61,9.84,7.43,4.29,0,4.06,78.2,87.8,79.4,102,100,55,98.2,35.1,67,6.86,7.91,7.77,9.6,9.42,4.07,6.18,3.03,5.92
CC(=O)Nc1ccc(C(=O)Nc2ccccc2N)cc1 [Tacedinaline] (max concentration tested 1000 nM),0,0,0,0,0,0,2.24 ± 3.5,-2.17,9.24,4.09,-2.81,6.93,6.18 ± 0.36,0.39,0.407,0,0,0,0,0,0,0,0,0
